Reference: US20100324285A1, “ANTIINFLAMMATORY AGENT COMPRISING 2-AMINOPHENOL OR DERIVATIVE THEREOF AS ACTIVE INGREDIENT” (priority 2006, published 2010)

What was measured:
RAW264.7 cells [1] = experiment: Macrophage growth, living cell count; format: cell-based, mouse; settings: 2 days, relative level versus control
Description: RAW264.7 cells, a murine macrophage cell strain, were suspended in PRMI1640 medium supplied with 10% (v/v) fetal calf serum (hereinafter abbreviated as “FCS”) to give a cell suspension with a cell concentration of 1×10^6 cells/ml. […] The experimental system without the test samples described above was set as control. […] NO production, PGE2 production and macrophage growth are indicated as relative levels versus controls.

[2] = system: NHDF, normal fibroblast from human fetus; experiment: Cytopathic test, alamar Blue; format: cell-based; settings: 6 days; for Cell survival rate (%), AA-2G free: no AA-2G; for Cell survival rate (%), AA-2G addition: with AA-2G
Experimental: Cells were cultured with test samples and D-MEM medium supplemented with 10 (v/v) % FCS with or without AA-2G for 6 days by the same method as above, and the supernatant was removed, washed with phosphate buffered saline (PBS(−)), and admixed with alamar Blue (commercialized by TREK Diagnostic Systems, Inc.), which had been diluted by 10-fold with D-MEM medium in a volume of 200 μl per well. After culturing at 37° C. for 90 minutes, the fluorescence intensity (exciting light: 544 nm, fluorescence: 590 nm) was measured. The cell survival rate (%) was calculated by dividing the fluorescence intensity of a well with a test sample by the fluorescence intensity of a well with a control sample, and multiplying by 100.

RAW264.7 cells [3] = experiment: NO production by macrophage RAW264.7, Griess method; format: cell-based, mouse; settings: LPS + IFN-γ, 2 days, relative level versus control
Description: As macrophage cells, RAW264.7 cell strain from mouse or macrophage cells obtained from laboratory animals such as mouse can be used. The amount of produced NO can be measured by conventional Griess method. […] RAW264.7 cells, a murine macrophage cell strain, were suspended in PRMI1640 medium supplied with 10% (v/v) fetal calf serum (hereinafter abbreviated as “FCS”) to give a cell suspension with a cell concentration of 1×10^6 cells/ml. […] The experimental system without the test samples described above was set as control. […] NO production, PGE2 production and macrophage growth are indicated as relative levels versus controls.

iNOS = experiment: Amount of iNOS in cell extracts, western blotting; format: cell-based, mouse; settings: RAW264.7 cell extracts of Experiment 2, anti-iNOS antibody
Experimental: In addition, the amount of iNOS in the cell extracts of this experiment was measured by western blotting analysis using an anti-iNOS antibody.

**Q.** Which “Macrophage growth (%)” value (RAW264.7 cells [1]; 0.16 μM) does the source give for `Nc1cc2nc3ccccc3oc-2cc1=O` [2-Aminophenoxazine-3-one, 2-aminophenoxazine-3-one] here?
**A.** 117%

**Q.** What about the “Macrophage growth (%)” value (RAW264.7 cells [1]; 0.31 μM) of the same compound?
**A.** 121%

**Q.** What about the “Macrophage growth (%)” value (RAW264.7 cells [1]; 0.63 μM) of the same compound?
**A.** 127%

**Q.** And the “Macrophage growth (%)” value (RAW264.7 cells [1]; 1.3 μM)?
**A.** 127%

**Q.** What about the “Macrophage growth (%)” value (RAW264.7 cells [1]; 2.5 μM) of the same compound?
**A.** 119%

**Q.** And the “Macrophage growth (%)” value (RAW264.7 cells [1]; 5.0 μM)?
**A.** 112%

**Q.** And the “Macrophage growth (%)” value (RAW264.7 cells [1]; 10 μM)?
**A.** 86%

**Q.** And the “Cell survival rate (%), AA-2G free” value ([2]; QA 0.125 μM)?
**A.** 101%

**Q.** What about the “Cell survival rate (%), AA-2G addition” value ([2]; QA 0.125 μM) of the same compound?
**A.** 100%

**Q.** And the “Cell survival rate (%), AA-2G free” value ([2]; QA 0.25 μM)?
**A.** 103%

**Q.** What about the “Cell survival rate (%), AA-2G addition” value ([2]; QA 0.25 μM) of the same compound?
**A.** 100%

**Q.** And the “Cell survival rate (%), AA-2G free” value ([2]; QA 0.5 μM)?
**A.** 99%

**Q.** And the “Cell survival rate (%), AA-2G addition” value ([2]; QA 0.5 μM)?
**A.** 92%

**Q.** And the “Cell survival rate (%), AA-2G free” value ([2]; QA 1.0 μM)?
**A.** 92%

**Q.** And the “Cell survival rate (%), AA-2G addition” value ([2]; QA 1.0 μM)?
**A.** 79%

**Q.** And the “Cell survival rate (%), AA-2G free” value ([2]; QA 2.0 μM)?
**A.** 88%

**Q.** What about the “Cell survival rate (%), AA-2G addition” value ([2]; QA 2.0 μM) of the same compound?
**A.** 73%

**Q.** And the “NO production (%)” value (RAW264.7 cells [3]; 0.16 μM)?
**A.** 85%

**Q.** What about the “NO production (%)” value (RAW264.7 cells [3]; 0.31 μM) of the same compound?
**A.** 78%

**Q.** What about the “NO production (%)” value (RAW264.7 cells [3]; 0.63 μM) of the same compound?
**A.** 70%

**Q.** And the “NO production (%)” value (RAW264.7 cells [3]; 1.3 μM)?
**A.** 54%

**Q.** What about the “NO production (%)” value (RAW264.7 cells [3]; 2.5 μM) of the same compound?
**A.** 32%

**Q.** And the “NO production (%)” value (RAW264.7 cells [3]; 5.0 μM)?
**A.** 19%

**Q.** And the “NO production (%)” value (RAW264.7 cells [3]; 10 μM)?
**A.** 14%

**Q.** What about the “amount of iNOS” value (iNOS) of the same compound?
**A.** decreased depending on the 2-aminophenoxazine-3-one concentration
